Results taken from BindingDB's records for doi:10.3109/14756366.2011.651464 (Ege University, 2013).
pKi: −log10 of the molar value.

Tests used:
Test in all cases: Esterase Activity Assay
Settings in all cases: pH 7.4
Carbonic anhydrase 3 = biological target: T1, Carbonic anhydrase 3 (Bos taurus, UniProt Q3SZX4)
T1 sequence (Q3SZX4 whole entry): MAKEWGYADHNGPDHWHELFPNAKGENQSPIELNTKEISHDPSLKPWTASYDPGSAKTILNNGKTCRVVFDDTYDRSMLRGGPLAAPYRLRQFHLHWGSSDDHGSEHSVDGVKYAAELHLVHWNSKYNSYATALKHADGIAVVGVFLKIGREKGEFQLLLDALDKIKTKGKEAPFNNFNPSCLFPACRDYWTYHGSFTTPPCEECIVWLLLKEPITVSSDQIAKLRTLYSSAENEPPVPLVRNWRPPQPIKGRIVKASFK

Carbonic anhydrase 1 = Carbonic anhydrase 1 (Homo sapiens, UniProt P00915)
Carbonic anhydrase 6 = Carbonic anhydrase 6 (Homo sapiens, UniProt P23280)
Carbonic anhydrase 4 = Carbonic anhydrase 4 (Homo sapiens, UniProt P22748)
Carbonic anhydrase 2 = Carbonic anhydrase 2 (Homo sapiens, UniProt P00918)

Carbonic anhydrase 6, sequence (P23280 whole entry): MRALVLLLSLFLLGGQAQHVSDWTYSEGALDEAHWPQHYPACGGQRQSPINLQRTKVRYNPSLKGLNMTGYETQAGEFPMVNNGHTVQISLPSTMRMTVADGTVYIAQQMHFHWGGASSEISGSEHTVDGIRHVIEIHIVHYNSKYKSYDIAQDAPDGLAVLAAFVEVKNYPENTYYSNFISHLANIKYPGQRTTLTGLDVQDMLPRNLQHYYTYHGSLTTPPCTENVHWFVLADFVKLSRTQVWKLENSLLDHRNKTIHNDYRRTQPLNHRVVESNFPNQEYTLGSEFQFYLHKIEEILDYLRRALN
Carbonic anhydrase 1, sequence (P00915 whole entry): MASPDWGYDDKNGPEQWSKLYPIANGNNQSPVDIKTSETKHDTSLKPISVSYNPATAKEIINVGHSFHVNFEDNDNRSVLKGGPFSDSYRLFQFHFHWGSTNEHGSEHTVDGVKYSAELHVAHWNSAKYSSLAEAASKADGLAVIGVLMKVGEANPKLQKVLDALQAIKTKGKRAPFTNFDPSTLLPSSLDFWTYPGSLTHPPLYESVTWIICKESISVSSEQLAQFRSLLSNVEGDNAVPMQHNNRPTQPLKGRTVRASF
Carbonic anhydrase 4, sequence (P22748 whole entry): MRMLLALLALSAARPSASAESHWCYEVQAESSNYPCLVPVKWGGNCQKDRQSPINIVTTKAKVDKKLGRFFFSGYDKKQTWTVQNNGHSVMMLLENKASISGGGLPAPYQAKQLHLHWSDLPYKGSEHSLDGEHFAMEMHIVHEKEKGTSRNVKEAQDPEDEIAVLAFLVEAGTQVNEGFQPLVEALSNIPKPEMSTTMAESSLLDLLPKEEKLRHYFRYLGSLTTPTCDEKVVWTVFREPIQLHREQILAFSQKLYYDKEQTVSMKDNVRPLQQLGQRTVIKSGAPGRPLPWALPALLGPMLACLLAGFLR

Row | pKi (Carbonic anhydrase 3) | pKi (Carbonic anhydrase 1) | pKi (Carbonic anhydrase 6) | pKi (Carbonic anhydrase 4) | pKi (Carbonic anhydrase 2) | SMILES
1 | 5.05 | 5.63 | 5.36 | 5.40 | 5.91 | Oc1cc(O)c2c(c1)O[C@H](c1ccc(O)c(O)c1)[C@H](O)C2
2 | 3.71 |  |  |  |  | Oc1cccc(O)c1
3 | 5.01 |  |  |  |  | Oc1cc(O)c2c(c1)O[C@H](c1ccc(O)c(O)c1)[C@@H](O)C2 [(+)-Catechin]
4 | 5.86 | 6.03 | 5.33 | 5.62 | 6.33 | CC(C)(O)[C@@H]1CC[C@](C)([C@H]2[C@@H](O)C[C@@]3(C)C4C[C@H](O[C@@H]5OC(CO)[C@@H](O)C(O)[C@@H]5O)C5C(C)(C)[C@@H](O[C@@H]6OC[C@@H](O)C(O)[C@@H]6O[C@@H]6OC[C@H](O)C(O)[C@@H]6O)CC[C@@]56C[C@@]46CC[C@]23C)O1 (stereo partly drawn) [α-CA inhibitor, 7]
5 | 5.60 | 5.66 | 5.01 | 5.36 | 5.89 | CC(C)(O)[C@@H]1CC[C@](C)([C@H]2[C@@H](O)C[C@@]3(C)C4C[C@H](O[C@@H]5OC[C@@H](O)C(O)[C@@H]5O)C5C(C)(C)[C@@H](O[C@@H]6OC[C@@H](O)C(O)[C@@H]6O)CC[C@@]56C[C@@]46CC[C@]23C)O1 (stereo partly drawn) [α-CA inhibitor, 10]

Row | SMILES | pKi (Carbonic anhydrase 3) | pKi (Carbonic anhydrase 1) | pKi (Carbonic anhydrase 6) | pKi (Carbonic anhydrase 4) | pKi (Carbonic anhydrase 2)
6 | Oc1ccccc1O [1,2-Dihydroxybenzene, XI] | 5.24 |  |  |  | 
7 | O=c1c(O)c(-c2ccc(O)c(O)c2)oc2cc(O)cc(O)c12 [2-(3,4-dihydroxyphenyl)-3,5,7-trihydroxy-chromone;hydrate] | 5.43 |  |  |  | 
8 | CC(C)(O)[C@@H]1CC[C@](C)([C@H]2[C@@H](O)C[C@@]3(C)C4C[C@H](O[C@@H]5OC(CO)[C@@H](O)C(O)[C@@H]5O)C5C(C)(C)[C@@H](O[C@@H]6OC[C@@H](O)C(O)[C@@H]6O)CC[C@@]56C[C@@]46CC[C@]23C)O1 (stereo partly drawn) [α-CA inhibitor, 8] | 5.71 | 5.83 | 5.16 | 5.56 | 6.01
